# Test results reported in ChEMBL document CHEMBL1150963, “Five new polyacetylenes from a sponge of the genus petrosia” (1998).
# Experiments:
# [1] = target: Phospholipase A2 (Homo sapiens) (UniProt P04054); experiment: Inhibition of PLA2 at 50 ug/ml
# K562 = experiment: Cytotoxicity against human K562 cells; assay type: functional; conditions: read-out: LC50 (the source's name)
# Phospholipase A2 (Homo sapiens), sequence (P04054 23-148 limits assumed): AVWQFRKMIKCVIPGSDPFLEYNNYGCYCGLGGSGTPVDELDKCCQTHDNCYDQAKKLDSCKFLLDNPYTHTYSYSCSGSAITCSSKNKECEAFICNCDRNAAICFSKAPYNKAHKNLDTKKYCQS
SMILES,inhibition [1],CC50 (K562)
C#C/C=C\CCCCCCCCCCCCCC/C=C\CCC/C=C/C(O)CCCCC#C[C@H](O)C#CCCCCCC/C=C/[C@@H](O)C#C (some centres undefined) [PETROCORTYNE E],48%,7 µM
C#C/C=C\CCCCCCCCCCCCC/C=C/C(O)CCCC/C=C\CCCCC#C[C@H](O)C#CCCCCCC/C=C/[C@@H](O)C#C (some centres undefined) [PETROCORTYNE G],36%,30 µM
C#C/C=C\CCCCCCCCCCCCCCC(O)/C=C/CCC/C=C\CCCCC#C[C@H](O)C#CCCCCCC/C=C/[C@@H](O)C#C (some centres undefined) [PETROCORTYNE H],32%,11 µM
C#C/C=C\CCCCCCCCCCCCCC/C=C\CCCCC(O)/C=C/CCCC#C[C@H](O)C#CCCCCCC/C=C/[C@@H](O)C#C (some centres undefined) [PETROCORTYNE F],25%,21 µM
C#C/C=C\CCCCCCCCCCCCCC/C=C\CCCC/C=C\CCCCC#C[C@H](O)C#CCCCCCCCC[C@H](O)C#C [PETROCORTYNE D],–,45 µM
